Assay results as given in ChEMBL document CHEMBL2203133 (J Med Chem, 2012).

Columns and labels:
[1] = Plasma concentration in BALB/c mouse at 10 mg/kg, po at 6 hrs; assay type: ADME, organism-based; set-up: dose 10 mg/kg, route oral
[2] = Plasma concentration in BALB/c mouse at 10 mg/kg, po at 1 hr; assay type: ADME, organism-based; set-up: dose 10 mg/kg, route oral
Plasma [3] = test: Dose normalized plasma concentration in BALB/c mouse at 1 mg/kg, iv at 6 hrs administered as bolus dose; assay type: ADME, organism-based; set-up: dose 1 mg/kg, route intravenous; conditions: in vivo
Plasma [4] = test: Dose normalized plasma concentration in BALB/c mouse at 1 mg/kg, iv at 1 hr administered as bolus dose; assay type: ADME, organism-based; set-up: dose 1 mg/kg, route intravenous; conditions: in vivo
[5] = molecular target: T1, Serine/threonine-protein kinase Chk1 (Homo sapiens, UniProt O14757)
T1 sequence (O14757 whole entry): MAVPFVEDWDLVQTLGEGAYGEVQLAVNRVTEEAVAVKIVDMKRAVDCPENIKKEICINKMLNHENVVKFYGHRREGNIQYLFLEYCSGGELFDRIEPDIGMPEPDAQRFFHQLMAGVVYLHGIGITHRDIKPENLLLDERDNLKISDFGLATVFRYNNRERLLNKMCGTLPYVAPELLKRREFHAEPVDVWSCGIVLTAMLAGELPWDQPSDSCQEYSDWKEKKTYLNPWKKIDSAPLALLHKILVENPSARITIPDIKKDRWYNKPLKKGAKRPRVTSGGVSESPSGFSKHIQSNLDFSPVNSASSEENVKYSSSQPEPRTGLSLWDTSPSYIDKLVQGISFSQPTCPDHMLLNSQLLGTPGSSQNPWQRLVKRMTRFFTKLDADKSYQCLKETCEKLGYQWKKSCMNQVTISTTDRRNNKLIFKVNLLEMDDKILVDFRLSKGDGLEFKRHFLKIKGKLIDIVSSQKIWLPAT

in vitro = conditions: mouse, liver microsomes

- concentration at 6 h [1]: 12 nM
- concentration at 1 h [2]: 193 nM
- Cp/dose (Plasma [3]): < 20 nM
- Cp/dose (Plasma [4]): 320 nM
- IC50 [5]: 4.4 nM
- metabolised at 0.5 h (in vitro): 17%
Compound: CNc1cc(Nc2cnc(C#N)c(O[C@@H]3CCN(C)C3)n2)ncc1-c1cnn(C)c1
